Test results: patent publication US6914045B2, “Glycopeptide antibiotics” (Wyeth Holdings Corporation, priority 2001, dated 2005)
Converted amounts (≈) assume the structure as drawn.

How the values were obtained:
Assay in all cases: in vitro antibacterial evaluation, MIC by broth dilution
Assay type in all cases: cell-based
Streptococcus sp. = settings: broth dilution, 18 hours at 35° C.
Summary of the method: (§1)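 Following National Committee for Clinical Laboratory Standards recommendations (M7-A2), susceptibility was measured by dilution in Muller-Hinton II […]. Bacteria were seeded at 5×10^5 CFU/mL against compound concentrations from 64 down to 0.06 μg/mL.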

Staphylococcus sp. = settings: broth dilution, 18 hours at 35° C.; for MIC Staphylococcus aureus (GC 1131): strain GC 1131
Summary of the method: as §1

Escherichia coli = tested on: Escherichia coli
Summary of the method: as §1

Enterococcus sp. = settings: broth dilution, 18 hours at 35° C.
Summary of the method: as §1

MIC Streptococcus agalactiae (GC 4564) (Streptococcus sp.; Streptococcus agalactiae (GC 4564)): <0.5 µg/mL
MIC Streptococcus pneumoniae (ATCC 6301) (Streptococcus sp.; Streptococcus pneumoniae (ATCC 6301)): <0.5 µg/mL
MIC Streptococcus pneumoniae (GC 1894) (Streptococcus sp.; Streptococcus pneumoniae (GC 1894)): <0.5 µg/mL
MIC Streptococcus pneumoniae (GC 4565) (Streptococcus sp.; Streptococcus pneumoniae (GC 4565)): <0.5 µg/mL
MIC Streptococcus pyogenes (GC 4563) (Streptococcus sp.; Streptococcus pyogenes (GC 4563)): 1 µg/mL (≈ 0.698 µM)
MIC Streptococcus pneumoniae (ATCC 6301) (Streptococcus sp.; strain ATCC 6301): <0.5 µg/mL
MIC Streptococcus pneumoniae (GC 1894) (Streptococcus sp.; strain GC 1894): <0.5 µg/mL
MIC Streptococcus pyogenes (GC 4563) (Streptococcus sp.; strain GC 4563): 1 µg/mL (≈ 0.698 µM)
MIC Streptococcus agalactiae (GC 4564) (Streptococcus sp.; strain GC 4564): <0.5 µg/mL
MIC Streptococcus pneumoniae (GC 4565) (Streptococcus sp.; strain GC 4565): <0.5 µg/mL
MIC Staphylococcus aureus (GC 1131) (Staphylococcus sp.; inoculum 5×10^5 CFU/mL): <0.5 µg/mL
MIC Staphylococcus aureus (ATCC 29213) (Staphylococcus sp.; strain ATCC 29213): 1 µg/mL (≈ 0.698 µM)
MIC Staphylococcus aureus (GC 1131) (Staphylococcus sp.): <0.5 µg/mL
MIC Staphylococcus aureus (GC 3051) (Staphylococcus sp.; strain GC 3051): 1 µg/mL (≈ 0.698 µM)
MIC Staphylococcus aureus (GC 3053) (Staphylococcus sp.; strain GC 3053): 1 µg/mL (≈ 0.698 µM)
MIC Staphylococcus aureus (GC 4541) (Staphylococcus sp.; strain GC 4541): <0.5 µg/mL
MIC Staphylococcus aureus (GC 4542) (Staphylococcus sp.; strain GC 4542): <0.5 µg/mL
MIC Staphylococcus aureus-SMITH (GC 4543) (Staphylococcus sp.; strain GC 4543): <0.5 µg/mL
MIC Staphylococcus aureus (GC 4544) (Staphylococcus sp.; strain GC 4544): 1 µg/mL (≈ 0.698 µM)
MIC Staphylococcus aureus (GC 4545) (Staphylococcus sp.; strain GC 4545): 1 µg/mL (≈ 0.698 µM)
MIC Coagulase Negative Staphylococcus (GC 4547) (Staphylococcus sp.; strain GC 4547): 1 µg/mL (≈ 0.698 µM)
MIC Coagulase Negative Staphylococcus (GC 4548) (Staphylococcus sp.; strain GC 4548): <0.5 µg/mL
MIC Coagulase Negative Staphylococcus (GC 4549) (Staphylococcus sp.; strain GC 4549): 1 µg/mL (≈ 0.698 µM)
MIC Coagulase Negative Staphylococcus (GC 4551) (Staphylococcus sp.; strain GC 4551): <0.5 µg/mL
MIC Coagulase Negative Staphylococcus (GC 6257) (Staphylococcus sp.; strain GC 6257): 0.5 µg/mL (≈ 0.349 µM)
MIC Staphylococcus aureus-SMITH (GC 4543) (Staphylococcus sp.; strain SMITH GC 4543): <0.5 µg/mL
MIC Escherichia coli (ATCC 25922) (Escherichia coli; strain ATCC 25922, 18 hours at 35° C.): 64 µg/mL (≈ 44.6 µM)
MIC Escherichia coli (GC 4559) (Escherichia coli; strain GC 4559, 18 hours at 35° C.): 32 µg/mL (≈ 22.3 µM)
MIC Escherichia coli (GC 4560) (Escherichia coli; strain GC 4560, 18 hours at 35° C.): <0.5 µg/mL
MIC Enterococcus avium (GC 4558) (Enterococcus sp.; Enterococcus avium (GC 4558)): 1 µg/mL (≈ 0.698 µM)
MIC Enterococcus faecalis (ATCC 29212) (Enterococcus sp.; Enterococcus faecalis (ATCC 29212)): 1 µg/mL (≈ 0.698 µM)
MIC Enterococcus faecalis (GC 2242) (Enterococcus sp.; Enterococcus faecalis (GC 2242)): <0.5 µg/mL
MIC Enterococcus faecalis (GC 2691) (Enterococcus sp.; Enterococcus faecalis (GC 2691)): 1 µg/mL (≈ 0.698 µM)
MIC Enterococcus faecalis (GC 3059) (Enterococcus sp.; Enterococcus faecalis (GC 3059)): 1 µg/mL (≈ 0.698 µM)
MIC Enterococcus faecalis (GC 4552) (Enterococcus sp.; Enterococcus faecalis (GC 4552)): 1 µg/mL (≈ 0.698 µM)
MIC Enterococcus faecalis (GC 4553) (Enterococcus sp.; Enterococcus faecalis (GC 4553)): 2 µg/mL (≈ 1.4 µM)
MIC Enterococcus faecalis (GC 4554) (Enterococcus sp.; Enterococcus faecalis (GC 4554)): 1 µg/mL (≈ 0.698 µM)
MIC Enterococcus faecalis (GC 6189) (Enterococcus sp.; Enterococcus faecalis (GC 6189)): 1 µg/mL (≈ 0.698 µM)
MIC Enterococcus faecium (GC 2243) (Enterococcus sp.; Enterococcus faecium (GC 2243)): 1 µg/mL (≈ 0.698 µM)
MIC Enterococcus faecium (GC 4556) (Enterococcus sp.; Enterococcus faecium (GC 4556)): 1 µg/mL (≈ 0.698 µM)
MIC Enterococcus faecium (GC 4557) (Enterococcus sp.; Enterococcus faecium (GC 4557)): 1 µg/mL (≈ 0.698 µM)
MIC Enterococcus faecalis (ATCC 29212) (Enterococcus sp.; strain ATCC 29212): 1 µg/mL (≈ 0.698 µM)
MIC Enterococcus faecalis (GC 2242) (Enterococcus sp.; strain GC 2242): <0.5 µg/mL
MIC Enterococcus faecium (GC 2243) (Enterococcus sp.; strain GC 2243): 1 µg/mL (≈ 0.698 µM)
MIC Enterococcus faecalis (GC 2691) (Enterococcus sp.; strain GC 2691): 1 µg/mL (≈ 0.698 µM)
MIC Enterococcus faecalis (GC 3059) (Enterococcus sp.; strain GC 3059): 1 µg/mL (≈ 0.698 µM)
MIC Enterococcus faecalis (GC 4552) (Enterococcus sp.; strain GC 4552): 1 µg/mL (≈ 0.698 µM)
MIC Enterococcus faecalis (GC 4553) (Enterococcus sp.; strain GC 4553): 2 µg/mL (≈ 1.4 µM)
MIC Enterococcus faecalis (GC 4554) (Enterococcus sp.; strain GC 4554): 1 µg/mL (≈ 0.698 µM)
MIC Enterococcus faecium (GC 4556) (Enterococcus sp.; strain GC 4556): 1 µg/mL (≈ 0.698 µM)
MIC Enterococcus faecium (GC 4557) (Enterococcus sp.; strain GC 4557): 1 µg/mL (≈ 0.698 µM)
MIC Enterococcus avium (GC 4558) (Enterococcus sp.; strain GC 4558): 1 µg/mL (≈ 0.698 µM)
MIC Enterococcus faecalis (GC 6189) (Enterococcus sp.; strain GC 6189): 1 µg/mL (≈ 0.698 µM)
Structure (SMILES): CC(c1ccccc1)C1NC(=O)CNC(=O)C(CO)NC(=O)C(C(O)C2CNC(=N)N2C2OC(CO)C(O)C(O)C2O)NC(=O)C(C(O)C2CNC(=N)N2)NC(=O)C(Cc2ccc(OC3OC(CO)C(OC4OC5COC(c6ccc7ccccc7c6)OC5C(O)C4O)C(O)C3O)cc2)NC1=O (stereo not drawn) [Example 145]
MIC Staphylococcus haemolyticus (GC 4546) (Staphylococcus sp.; strain GC 4546): <0.5 µg/mL
